From US10174016B2 (BAYER AKTIENGESELLSCHAFT, priority 2014, dated 2019)
Like-named read-outs stand apart in the source and are kept apart here.

Legend:
[1] = molecular target: human P2X3 receptor (Homo sapiens (Human), UniProt P56373); assay: Intracellular calcium measurement (FLIPR, Fluo-4) of antagonist activity at human P2X3 receptors; type: cell-based; settings: read-out: hP2X3 IC50
Experimental: (§1) Intracellular Calcium Measurement to Assess Antagonist Activity at Human P2X3 and Human P2X2/3 Receptors
(§2) A fluorescent imaging plate reader (FLEX/FLIPR station; Molecular Devices) was used to monitor intracellular calcium levels using the calcium-chelating dye Fluo-4 (Molecular Probes). […] Cells expressing purinergic receptors P2X3 (human) or P2X2/3 (human) were plated at a density of 15,000 cells/well in collagen-coated 384-well plates approximately 20 hours before beginning the assay. […] The test compound was added in a volume of 5 μl and allowed to incubate for 30 min at 37° C. The final assay DMSO concentration is 1%. The agonist, α,β-Me-ATP, was added in a volume of 20 μl at a concentration representing the EC80 value. The fluorescence was measured for an interval of 90 sec at 2 sec intervals and analyzed based on the increase in peak relative fluorescence units (RFU) compared to the basal fluorescence. Peak fluorescence was used to determine the response to agonist obtained at each concentration of test compound by the following equation: % Response=100*(RFU(test compound)−RFU(control)/RFU(DMSO)−RFU(control))
(§3) The Examples were tested in triplicates per plate and mean values were plotted in Excel XLFit to determine IC50 values at the human P2X3 and human P2X2/3 receptors, percentage of maximal inhibition and the Hill coefficients.

[2] = molecular target: human P2X2/3 receptor (Homo sapiens (Human), UniProt P56373+Q9UBL9); assay: Intracellular calcium measurement (FLIPR, Fluo-4) of antagonist activity at human P2X2/3 receptors; type: cell-based
Experimental: as §1, §2, §3

[3] = human P2X3, FLIPR calcium assay, agonist α,β-Me-ATP
[4] = human P2X2/3, FLIPR calcium assay, agonist α,β-Me-ATP, read-out: hP2X2/3 IC50

human P2X2/3 receptor, sequence (P56373 whole entry): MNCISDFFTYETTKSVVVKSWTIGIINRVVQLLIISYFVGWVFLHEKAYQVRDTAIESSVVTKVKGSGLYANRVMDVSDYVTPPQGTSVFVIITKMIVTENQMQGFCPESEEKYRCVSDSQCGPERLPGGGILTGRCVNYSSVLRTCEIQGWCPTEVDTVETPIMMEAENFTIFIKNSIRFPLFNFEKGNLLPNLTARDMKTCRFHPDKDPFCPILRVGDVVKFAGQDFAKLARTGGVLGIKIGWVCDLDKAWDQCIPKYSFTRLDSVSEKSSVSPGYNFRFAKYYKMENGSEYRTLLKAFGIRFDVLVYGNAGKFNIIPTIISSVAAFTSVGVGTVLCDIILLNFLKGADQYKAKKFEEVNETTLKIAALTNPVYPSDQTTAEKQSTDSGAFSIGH
human P2X2/3 receptor, sequence (Q9UBL9 whole entry): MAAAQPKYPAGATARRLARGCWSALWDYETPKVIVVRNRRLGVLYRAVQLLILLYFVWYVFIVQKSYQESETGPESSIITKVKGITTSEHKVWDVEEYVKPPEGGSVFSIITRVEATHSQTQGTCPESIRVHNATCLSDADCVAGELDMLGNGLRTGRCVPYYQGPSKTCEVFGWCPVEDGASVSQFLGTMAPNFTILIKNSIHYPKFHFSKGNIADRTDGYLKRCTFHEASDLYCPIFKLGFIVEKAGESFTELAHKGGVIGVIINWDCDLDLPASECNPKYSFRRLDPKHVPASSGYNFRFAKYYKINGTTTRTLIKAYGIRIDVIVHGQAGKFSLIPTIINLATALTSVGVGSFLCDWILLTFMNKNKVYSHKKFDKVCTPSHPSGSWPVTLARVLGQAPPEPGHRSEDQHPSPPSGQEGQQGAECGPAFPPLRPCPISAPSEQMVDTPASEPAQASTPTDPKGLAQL
human P2X3 receptor, sequence (P56373 whole entry): as the sequence (P56373 whole entry) above

Row | IC50 [1, 3] [nM] | IC50 [2, 4] [nM] | Compound | IC50 [1] [nM] | IC50 ([2]; hP2X2/3 IC50 (nM)) [nM]
1 | 21 | 1100 | Cc1cnc(-c2cc(O[C@@H]3CCOC3)cc(C(=O)NC(C)c3ncc(F)cc3Cl)c2)s1 (stereo partly drawn) [Example 13, N-[1-(3-chloro-5-fluoropyridin-2-yl)ethyl]-3-(5-methyl-1,3-thiazol-2-yl)-5-[(3R)-tetrahydrofuran-3-yloxy]benzamide] | – | –
2 | 8 | 88 | Cc1cnc(-c2cc(O[C@@H]3CCOC3)cc(C(=O)NC(C)c3ncc(Cl)cc3F)c2)s1 (stereo partly drawn) [Example 14, N-[1-(5-chloro-3-fluoropyridin-2-yl)ethyl]-3-(5-methyl-1,3-thiazol-2-yl)-5-[(3R)-tetrahydrofuran-3-yloxy]benzamide] | – | –
3 | 6 | 147 | Cc1cnc(-c2cc(O[C@@H]3CCOC3)cc(C(=O)N[C@H](C)c3ccc(Cl)cn3)c2)s1 [Example 15, N-[(1R)-1-(5-chloropyridin-2-yl)ethyl]-3-(5-methyl-1,3-thiazol-2-yl)-5-[(3R)-tetrahydrofuran-3-yloxy]benzamide] | – | –
4 | 35 | 1010 | Cc1ccc(CNC(=O)c2cc(O[C@@H]3CCOC3)cc(-c3ncc(C)s3)c2)nn1 [Example 17, N-[(6-methylpyridazin-3-yl)methyl]-3-(5-methyl-1,3-thiazol-2-yl)-5-[(3R)-tetrahydrofuran-3-yloxy]benzamide] | – | –
5 | 34 | 427 | Cc1ccc([C@@H](C)NC(=O)c2cc(O[C@@H]3CCOC3)cc(-c3ncc(C)s3)c2)nn1 [Example 18, N-[(1R)-1-(6-methylpyridazin-3-yl)ethyl]-3-(5-methyl-1,3-thiazol-2-yl)-5-[(3R)-tetrahydrofuran-3-yloxy]benzamide] | – | –
6 | 19 | 749 | Cc1cnc(-c2cc(O[C@@H]3CCOC3)cc(C(=O)N[C@H](C)c3ccc(C(F)(F)F)nn3)c2)s1 [Example 19, 3-(5-Methyl-1,3-thiazol-2-yl)-5-[(3R)-tetrahydrofuran-3-yloxy]-N-{(1R)-1-[6-(trifluoromethyl)pyridazin-3-yl]ethyl}benzamide] | – | –
7 | 35 | 486 | Cc1cnc(-c2cc(O[C@@H]3CCOC3)cc(C(=O)N[C@H](C)c3nnc(C)s3)c2)s1 [Example 20, N-[(1R)-1-(5-methyl-1,3,4-thiadiazol-2-yl)ethyl]-3-(5-methyl-1,3-thiazol-2-yl)-5-[(3R)-tetrahydrofuran-3-yloxy]benzamide] | – | –
8 | 71 | 445 | Cc1cnc(-c2cc(O[C@@H]3CCOC3)cc(C(=O)NCc3ccc(C(F)(F)F)nn3)c2)s1 [Example 21, 3-(5-Methyl-1,3-thiazol-2-yl)-5-[(3R)-tetrahydrofuran-3-yloxy]-N-{[6-(trifluoromethyl)pyridazin-3-yl]methyl}benzamide] | – | –
9 | 36 | 332 | Cc1ccc([C@@H](C)NC(=O)c2cc(O[C@@H]3CCOC3)cc(-c3ncc(C)s3)c2)cn1 [Example 24, N-[(1R)-1-(6-Methylpyridin-3-yl)ethyl]-3-(5-methyl-1,3-thiazol-2-yl)-5-[(3R)-tetrahydrofuran-3-yloxy]benzamide] | – | –
10 | 39 | 975 | Cc1ccc([C@@H](C)NC(=O)c2cc(O[C@H]3CCOC3)cc(-c3ncc(C)s3)c2)nn1 [Example 25, N-[(1R)-1-(6-Methylpyridazin-3-yl)ethyl]-3-(5-methyl-1,3-thiazol-2-yl)-5-[(3S)-tetrahydrofuran-3-yloxy]benzamide] | – | –
11 | 25 | 280 | Cc1cnc(-c2cc(O[C@H]3CCOC3)cc(C(=O)N[C@H](C)c3ccc(Cl)cn3)c2)s1 [Example 27, N-[(1R)-1-(5-Chloropyridin-2-yl)ethyl]-3-(5-methyl-1,3-thiazol-2-yl)-5-[(3S)-tetrahydrofuran-3-yloxy]benzamide] | – | –
12 | 48 | 121 | Cc1ccc([C@@H](C)NC(=O)c2cc(O[C@H]3CCOC3)cc(-c3ncc(C)s3)c2)nc1 [Example 28, N-[(1R)-1-(5-Methylpyridin-2-yl)ethyl]-3-(5-methyl-1,3-thiazol-2-yl)-5-[(3S)-tetrahydrofuran-3-yloxy]benzamide] | – | –
13 | 38 | 485 | Cc1ccc([C@@H](C)NC(=O)c2cc(O[C@H]3CCOC3)cc(-c3ncc(C)s3)c2)cn1 [Example 30, N-[(1R)-1-(6-methylpyridin-3-yl)ethyl]-3-(5-methyl-1,3-thiazol-2-yl)-5-[(3S)-tetrahydrofuran-3-yloxy]benzamide] | – | –

The next lines start with the molecule.

Row | Compound | IC50 [1, 3] [nM] | IC50 [2, 4] [nM] | IC50 [1] [nM] | IC50 ([2]; hP2X2/3 IC50 (nM)) [nM]
14 | CC[C@@H](NC(=O)c1cc(O[C@@H]2CCOC2)cc(-c2ncc(C)s2)c1)c1cnc(C(F)(F)F)nc1 [Example 22, 3-(5-Methyl-1,3-thiazol-2-yl)-5-[(3R)-tetrahydrofuran-3-yloxy]-N-{(1R)-1-[2-(trifluoromethyl)pyrimidin-5-yl]propyl}benzamide] | 132 | 987 | – | –
15 | Cc1ncc([C@@H](C)NC(=O)c2cc(O[C@@H]3CCOC3)cc(-c3ncc(C)s3)c2)cn1 [Example 23, N-[(1R)-1-(2-Methylpyrimidin-5-yl)ethyl]-3-(5-methyl-1,3-thiazol-2-yl)-5-[(3R)-tetrahydrofuran-3-yloxy]benzamide] | – | – | 30 | 1110
16 | C#CCOc1cc(C(=O)NCc2ccc(C)nn2)cc(-c2ncc(C)s2)c1 [Example 31, N-[(6-Methylpyridazin-3-yl)methyl]-3-(5-methyl-1,3-thiazol-2-yl)-5-(prop-2-yn-1-yloxy)benzamide] | 173 | ≥ 10000 | – | –
17 | C#CCOc1cc(C(=O)N[C@H](C)c2ccc(C)nc2)cc(-c2ncc(C)s2)c1 [Example 33, N-[(1R)-1-(6-Methylpyridin-3-yl)ethyl]-3-(5-methyl-1,3-thiazol-2-yl)-5-(prop-2-yn-1-yloxy)benzamide] | 29 | 912 | – | –
18 | C#CCOc1cc(C(=O)N[C@H](C)c2cnc(C)cn2)cc(-c2ncc(C)s2)c1 [Example 34, N-[(1R)-1-(5-Methylpyrazin-2-yl)ethyl]-3-(5-methyl-1,3-thiazol-2-yl)-5-(prop-2-yn-1-yloxy)benzamide] | 111 | 2120 | – | –
19 | C#CCOc1cc(C(=O)NCc2cnc(C)cn2)cc(-c2ncc(C)s2)c1 [Example 35, N-[(5-Methylpyrazin-2-yl)methyl]-3-(5-methyl-1,3-thiazol-2-yl)-5-(prop-2-yn-1-yloxy)benzamide] | 460 | ≥ 10000 | – | –
20 | C#CCOc1cc(C(=O)N[C@H](C)c2cnc(C(F)(F)F)nc2)cc(-c2ncc(C)s2)c1 [Example 36, 3-(5-Methyl-1,3-thiazol-2-yl)-5-(prop-2-yn-1-yloxy)-N-{(1R)-1-[2-(trifluoromethyl)pyrimidin-5-yl]ethyl}benzamide] | 14 | 306 | – | –
21 | C#CCOc1cc(C(=O)N[C@H](C)c2ccc(C(F)(F)F)nn2)cc(-c2ncc(C)s2)c1 [Example 38, 3-(5-Methyl-1,3-thiazol-2-yl)-5-(prop-2-yn-1-yloxy)-N-[(1R)-1-[6-(trifluoromethyl)pyridazin-3-yl]ethyl]benzamide] | 55 | 1140 | – | –
22 | C#CCOc1cc(C(=O)N[C@H](C)c2cnc(C)nc2)cc(-c2ncc(C)s2)c1 [Example 39, N-[(1R)-1-(2-Methylpyrimidin-5-yl)ethyl]-3-(5-methyl-1,3-thiazol-2-yl)-5-(prop-2-yn-1-yloxy)benzamide] | 81 | 1650 | – | –
